The structures appear in SMILES notation.

The data set deals with Tetrahymena pyriformis. In words: 48 h IGC50 (-log10 mol/L); higher = more toxic.
Regarding `O=[N+]([O-])c1ccc(CO)cc1`, the “48 h IGC50 (-log10 mol/L)” value is 3.12.
To `Clc1cccc(Cl)c1Br` belongs 4.34.
With `Cc1ccc(O)cc1C`, the “48 h IGC50 (-log10 mol/L)” value was 3.12.
`Cc1ccccc1C#N`: the “48 h IGC50 (-log10 mol/L)” value worked out at 2.76.
For the compound `CC1=CC(=O)c2c(O)cccc2C1=O`, the “48 h IGC50 (-log10 mol/L)” value is 5.2.
To `ClCCc1ccccc1` belongs 3.17; to `Nc1c(Cl)cc([N+](=O)[O-])cc1[N+](=O)[O-]`, 4.12; to `CCOC(=O)Cc1cccs1`, 3.27.
To `Cc1ccc(-c2ccccc2)cc1` belongs 4.66; to `CCOS(=O)OCC`, 2.01; to `C=COC(=O)CCC`, 2.62.
The result for `CCCCCCCCCCC=O` reads 4.69; that for `C=CC(=O)OCCCC`, 3.52.
For `CC(CN)c1ccccc1` (stereo not drawn), the “48 h IGC50 (-log10 mol/L)” value was 2.72.
To `O=[N+]([O-])c1ccc(F)cc1O` belongs 4.12; to `O=[N+]([O-])c1cc(Cl)c(Cl)c(Cl)c1`, 4.55; to `CCc1ccccc1O`, 3.16.
The result for `C1CSCCS1` reads 2.89; that for `CCCC#CC(=O)OC`, 3.76.
`O=[N+]([O-])c1ccccc1Cl`: the “48 h IGC50 (-log10 mol/L)” value is 3.68.
For `Cc1cc(Cl)c([N+](=O)[O-])cc1[N+](=O)[O-]`, the “48 h IGC50 (-log10 mol/L)” value worked out at 5.33.
The result for `CCCCCCC(=O)OC` reads 3.1; that for `CC(C)C(Br)C(=O)O` (stereo not drawn), 2.45; that for `O=[N+]([O-])c1ccc(Br)s1`, 4.41.
The result for `CC(C)OC(=O)CC#N` reads 2.05; that for `CCCCCC#CC(=O)OC`, 4.04; that for `CCCCCCCCCC(C)O` (stereo not drawn), 4.58.
The result for `O=Cc1ccc(Br)cc1` reads 3.59.
With `OCCCCCCCl`, the “48 h IGC50 (-log10 mol/L)” value is 2.73.
The result for `Oc1ccc(O)c(Br)c1` reads 4.68; that for `CCOc1cc(O)ccc1OC`, 2.7; that for `O=C(c1ccccc1)C(F)(F)F`, 2.99.
The result for `CCCCOC(=O)CCCCCCC(=O)OCCCC` reads 4.66; that for `CCCCCCCCCCC(=O)OC`, 4.42; that for `CCCCC(=O)C(C)=O`, 3.04.
To `CCCC(Br)C(=O)OCC` (stereo not drawn) belongs 3.7.
In the case of `CCCCCCCCNC(N)=S`, the “48 h IGC50 (-log10 mol/L)” value was determined as 4.51.
With `CC/C=C/CBr`, the “48 h IGC50 (-log10 mol/L)” value was determined as 3.77.
With `O=C1C=CCC1`, the “48 h IGC50 (-log10 mol/L)” value came out at 3.64.
On to `CCC(C)OC(C)=O` (stereo not drawn), for which the “48 h IGC50 (-log10 mol/L)” value came out at 2.32.
The result for `O=C(c1ccccc1O)c1ccccc1O` reads 4.16.
In the case of `N#Cc1ccc[nH]1`, the “48 h IGC50 (-log10 mol/L)” value stood at 2.42.
As for `CCCCCCCC#N`, the “48 h IGC50 (-log10 mol/L)” value came to 3.28.
The result for `O=C(O)c1cc(Br)ccc1Br` reads 2.69.
`O=[N+]([O-])c1ccc(I)c([N+](=O)[O-])c1`: the “48 h IGC50 (-log10 mol/L)” value amounted to 5.12.
To `C=CC(=O)OCCCCC` belongs 3.54; to `O=C(O)CCCCCC(=O)O`, 2.42.
Regarding `O=Cc1ccccc1F`, the “48 h IGC50 (-log10 mol/L)” value came to 3.08.
To `COC(=O)c1ccc(OC)cc1O` belongs 3.62; to `CCC(=O)OC(C)(C)C`, 2.59.
The result for `CCc1cccc(CC)c1N` reads 3.31; that for `Oc1ccc(Br)cc1`, 3.68.
Take `Oc1ccc(O)c(O)c1`: the “48 h IGC50 (-log10 mol/L)” value amounted to 3.44.
`CCCCCOC(=O)CC`: the “48 h IGC50 (-log10 mol/L)” value was found to be 2.96.
The result for `C/C=C(\C)C=O` reads 2.86; that for `O=Nc1ccc(O)cc1`, 3.65; that for `O=C(c1ccccc1)c1ccc(O)cc1O`, 4.37.
Consider `OCc1ccc(F)cc1`, for which the “48 h IGC50 (-log10 mol/L)” value is 2.38.
For `OCCCCCCCCCCO`, the “48 h IGC50 (-log10 mol/L)” value is 3.22.
With `CCOC(=O)c1ccc(Cl)cc1`, the “48 h IGC50 (-log10 mol/L)” value was determined as 3.75.
`CCCC[N+](=O)[O-]`: the “48 h IGC50 (-log10 mol/L)” value is 2.31.
To `N#Cc1ccc(Cl)s1` belongs 2.92; to `C=CCc1ccccc1`, 3.19; to `O=[N+]([O-])CBr`, 4.64.
To `C/C=C/C(=O)OCCCC` belongs 2.84; to `N#Cc1ccccc1[N+](=O)[O-]`, 4.08; to `CCCC(=O)OC`, 1.75.
As to `COC(=O)c1ccc(C=O)cc1`, the “48 h IGC50 (-log10 mol/L)” value turned out to be 3.3.

The record behind these values is EPA's aquatic toxicity sets.
